Structures can show the parent of a compound that is named as a salt.
Assays:
pepsin secretion = experiment: Preventive effect on pepsin secretion in pylorus-ligated rats; type: in vivo, Male SD-strain rats; conditions: 100 mg/kg oral, 5 h after administration, hydrate
Description: (§1) Preventive effect on acid and pepsin secretions
(§2) Male SD-strain rats (6 to 7 weeks old) were starved for 48 hours, and then the pylori were ligated. Immediately after ligation, a solution or suspension of a test compound in distilled water was administered orally into the stomachs in an amount of 0.2 ml per 100 g of body weight (Dose: 100 mg/kg). Five hours after said administration of the test compound, the rats were sacrificed and the stomachs were removed. The gastric contents were centrifuged at 2,500 rpm for 10 minutes and the gastric juice was collected as the supernatant. The concentration of pepsin in the gastric juice was determined by Anson's method (c.f., J. Gen. Physiol., 22, pp. 77-89 (1938)) using hemoglobin as the substrate, and the preventive effect of the test compound on the pepsin secretion was estimated in terms of "decrease in pepsin concentration" according to the following formula: [formula]

gastric acid secretion = experiment: Preventive effect on gastric acid secretion in pylorus-ligated rats; type: in vivo, Male SD-strain rats; conditions: 100 mg/kg oral, 5 h after administration, hydrate
Description: as §1, §2
On the other hand, the concentration of free acid in the gastric juice was determined by titrating said gastric juice to pH 7.0 with 0.1N NaOH, and the preventive effect of the test compound on the gastric acid secretion was estimated in terms of "the decrease in acidity of gastric juice" according to the following formula: [formula] (Results)

Shay rat ulcers = experiment: Effect on Shay rat ulcers (pylorus-ligated); type: in vivo, Male SD-strain rats; conditions: 17 h
Description: Male SD-strain rats (6 to 7 weeks old) were starved for 48 hours and then the pylori were ligated. Immediately after ligation, a solution or suspension of a test compound in distilled water was administered orally into the stomachs in an amount of 0.2 ml per 100 g of body weight (Dose: 200 or 300 mg/kg). Seventeen hours after the administration of the test compound, the degree of ulceration in forestomach was examined according to the method of Takagi et al (Chem. Pharm. Bull., 11(10), pp. 1282-1290 (1963)) with a modified scoring system. Depending on the diameter of each lesions, the ulcers were classified into the following 4 grades. Ulcer index was calculated by the sum of the number of ulcers in each degree multiplied by respective ulcer score. Further, based on the ulcer index determined above, the preventive effect of the test compound on Shay rat ulcer was calculated by the following formula: [formula] (Results)

aspirin-induced ulcers = experiment: Effect on aspirin-induced ulcers; type: in vivo, Male Donryu-strain rats; conditions: p.o. 0.8 m mol./kg (400 mg/kg); aspirin 200 mg/kg
Description: Male Donryu-strain rats (8 to 9 weeks old) were starved overnight, and a solution or suspension of a test compound in distilled water was administered orally into the stomachs in an amount of one ml per 100 g of body weight. Half an hour later, a suspension of aspirin in 0.25% CMC solution was administered orally to the rats in an amount of 0.5 ml per 100 g of body weight (Dose: 200 mg/kg). Four hours after the administration of aspirin, the rats were sacrificed and the stomachs were removed and inflated by injecting 10 ml of 1% formalin solution to fix the inner layers of the gastric walls. The stomach was then incised along the greater curvature and the lengths of the lesions were measured and summated to give ulcer index (in mm) for each animal. The preventive effect of the test compound on aspirin-induced ulcers were calculated by the following formula: [formula] (Results)

gastric mucus secretion = experiment: Effect on gastric mucus secretion (alcian blue binding); type: in vivo, Male Sprague-Dawley rats; conditions: 100 mg/kg oral, 1 h, hydrate; for Alcian blue binding: control (water) 198.5 ± 6.4
Description: Stimulating effect of a test compound on gastric mucus secretion was examined by the method of Corne et al. (J. Physiol., 242, pp. 116-117(1974); J. Pharm. Pharmacol., 33, pp. 348-352(1981)). Male Sprague-Dawley rats (6-7 weeks old; one group: 6 rats) were fasted for 20 hours before the experiments. Water was given ad libitum and coprophagy was prevented by using cages with wide-mesh floors. A test compound dissolved or suspended in distilled water was administered orally to the rats at a dose of 100 mg/kg. One hour after the administration of the test compound, the stomachs were dissected, opened along the greater curvature, rinsed in ice-cold 0.25M sucrose, and the rumen was discarded. Then, the stomachs were incubated in 10 ml of a 0.15M sucrose-0.05M sodium acetate solution (pH 5.8) containing alcian blue (1 mg/ml), at room temperature for 1.5 hours. Finally, the stomachs were placed in 15 ml of a 0.5M magnesium chloride solution for 2 hours with occasional shaking and then removed, and the magnesium chloride solution was shaken briefly with 10 ml of diethyl ether. The optical density of the aqueous layer was read at 605 nm, and the degree of alcian blue binding was expressed as μg alcian blue/g of tissue. The stimulating effect of the test compound on gastric mucus secretion was estimated in terms of "the increase in alcian blue binding" which was calculated by the following formula: [formula] (Results)

gastric mucous membrane = experiment: Protective effect on gastric mucous membrane (excised stomach in artificial gastric juice); parameters: species or system Male Sprague-Dawley rats; conditions: 37° C., 60 min; for Amount of tyrosine: control 2.42 ± 0.15; for Amount of tyrosine / Inhibition (%) of digestion of mucous membrane: hydrate
Description: Protective effect of a test compound on gastric mucous membrane was examined by the method of Diago et al. (Yakugaku Zasshi, 101, 452-457(1981)). Male Sprague-Dawley rats (6-7 weeks old; one group: 5 rats) were fasted for 20 hours before the experiments. Water was given ad libitum and coprophagy was prevented by using cages with wide-mesh floors. The stomach was excised, opened along the greater curvature, rinsed in physiological saline solution, and the rumen was discarded. The stomach was incubated in 10 ml of an artificial gastric juice (100 mM HCl, 0.3% pepsin, 0.2% NaCl) containing a test compound, at 37° C. for 60 minutes. After the incubation, 2 ml of 7% trichloroacetic acid were added to 0.5 ml of medium, and the mixture was centrifuged. The amount of tyrosine in the supernatant was measured by using Folin-Ciocelteu reagent (J. gen. Physiol., 16, 59-63(1932)), and expressed as mg tyrosine/g tissue. The protective effect of the test compound on gastric mucous membrane was estimated in terms of "the inhibition of digestion of mucous membrane" which was calculated by the following formula: [formula] (Results)

urinary electrolytes [1] = experiment: Effect on urinary electrolytes (Experiment 9); type: in vivo, Male SD-strain rats; conditions: for Urine volume: 4 h, control 6.5 ± 0.3; for Na/K ratio: 4 h urine, control 5.8 ± 0.6
Description: Male SD-strain rats (6 to 7 weeks old, one group: 6 rats) were starved overnight, and a physiological saline solution (3 ml/100 g of body weight) was orally administered to the rats. One hour later, a suspension of a test compound in a physiological saline solution was administered orally to the rats in an amount of 3 ml per 100 g of body weight (Dose: 500 or 1,000 mg/kg). Immediately after administration of the test compound, the rats were placed into metabolic cages (one rat per cage) and deprived of water and food for 4 hours. The urine samples which were excreted during a 4 hour period were collected. Sodium and potassium in the urine were estimated by a flame photometer (Hitachi Model-205).

[2] = Acute oral toxicity in rats (Experiment 10); type: in vivo; conditions: rat, in vivo, male SD-strain rats, 7 days
Description: (§3) After male SD-strain rats (6-7 weeks old) were starved for 20 hours, a solution or suspension of a test compound in distilled water was administered orally to the rats in an amount of one ml per 100 g of body weight. After administration of the test compound, the rats were allowed free access to water and food.

urinary electrolytes [3] = experiment: Effect on urine volume and urinary electrolytes (Experiment 7); type: in vivo, Male SD-strain rats; conditions: for Urine volume: 5 h, 2 rats per cage, control 12.3; for Na/K: 5 h urine, control 5.8
Description: Male SD-strain rats (6 to 7 weeks old) were starved overnight, and a physiological saline solution (3 ml/100 g of body weight) was orally administered to the rats. One hour later, a solution or suspension of a test compound in a 0.25% CMC-physiological saline solution was administered orally to the rats in an amount of 3 ml per 100 g of body weight (Dose: 50 and 500 mg/kg). Immediately after administration of the test compound, the rats were placed into metabolic cages (2 rats per cage) and deprived of water and food for 5 hours. The urine samples which were excreted during a 5 hour period were collected. Sodium and potassium in the urine were estimated by a flame photometer (Hitachi Model-205).

rats = experiment: Acute oral toxicity in rats (Experiment 10); type: in vivo; conditions: male SD-strain rats, 7 days, hydrate, 10080 min
Description: as §3

in vivo = conditions: mouse, oral, male ddY-strain mice, 7 days
Description: After male ddY-strain mice (4 weeks old) were starved for 4 hours, a suspension of a test compound in distilled water containing a small amount of Tween 80 was administered orally to the mice in an amount of 0.1 ml per 10 g of body weight. After administration of the test compound, the mice were allowed free access to water and food. […] As a result, the LD50 of sulfodehydroabietic acid calcium salt was more than 2,000 mg/kg.

[4] = 1 mg/ml in artificial gastric juice
[5] = 4 mg/ml in artificial gastric juice

In the case of `CC(C)c1cc2c(cc1S(=O)(=O)O)[C@@]1(C)CCC[C@@](C)(C(=O)O)[C@@H]1CC2` [Sulfodehydroabietic acid monosodium salt, 1,4a-dimethyl-1-carboxy-6-sulfo-7-isopropyl-1,2,3,4,4a,9,10,10a-octahydro-phenanthrene monosodium salt 5 hydrate], the “Decrease (%) in pepsin concentration” value (pepsin secretion) is reported as 96%, the “Decrease (%) in acidity of gastric juice” value (gastric acid secretion) is reported as 43% and the “Preventive effect on Shay rat ulcers” value (Shay rat ulcers; 200 mg/kg oral, hydrate) is reported as 100%. For the same compound, the “Preventive effect on aspirin-induced ulcers” value (aspirin-induced ulcers) was 68%, the Alcian blue binding (gastric mucus secretion) was 287.3 ± 34.2 μg/g tissue and the “Increase (%) in alcian blue binding” value (gastric mucus secretion) was 45%. For the same compound, the Amount of tyrosine (gastric mucous membrane; [4]) was 1.61 ± 0.13 mg/g tissue, the Amount of tyrosine (gastric mucous membrane; [5]) was 0.95 ± 0.07 mg/g tissue and the inhibition at 1000 µg/mL (gastric mucous membrane; Rattus norvegicus, 1 h, 1 mg/ml in artificial gastric juice, read-out: Inhibition (%) of digestion of mucous membrane) was 33%. It also gave an inhibition at 4000 µg/mL (gastric mucous membrane; Rattus norvegicus, 1 h, 4 mg/ml in artificial gastric juice, read-out: Inhibition (%) of digestion of mucous membrane) of 61%, a Urine volume (urinary electrolytes [1]; 500 mg/kg oral) of 6.2 ± 0.5 mL and a Na/K ratio (urinary electrolytes [1]; 500 mg/kg oral) of 5.6 ± 0.5. The Urine volume (urinary electrolytes [1]; 1000 mg/kg oral) was 4.7 ± 0.4 mL, the Na/K ratio (urinary electrolytes [1]; 1000 mg/kg oral) was 5.9 ± 0.2 and the “change in urinary sodium-potassium ratio” value (urinary electrolytes [1]; 500 or 1000 mg/kg oral, rats, in words) was “no substantial change in urinary sodium-potassium ratio”. The LD50 at 168 h [2] was > 2000 mg/kg.
For `CC(C)c1cc2c(cc1S(=O)(=O)O)[C@@]1(C)CCC[C@@](C)(C(=O)O)[C@@H]1CC2` [Sulfodehydroabietic acid calcium salt, sulfodehydroabietic acid calcium salt 2.5 hydrate], the “Decrease (%) in pepsin concentration” value (pepsin secretion) was 99%, the “Decrease (%) in acidity of gastric juice” value (gastric acid secretion) was 30% and the “Preventive effect on Shay rat ulcers” value (Shay rat ulcers; 300 mg/kg oral) was 100%. For the same compound, the Alcian blue binding (gastric mucus secretion) was 284.7 ± 14.9 μg/g tissue, the “Increase (%) in alcian blue binding” value (gastric mucus secretion) was 44% and the Amount of tyrosine (gastric mucous membrane; [4]) was 1.72 ± 0.08 mg/g tissue. For the same compound, the “Inhibition (%) of digestion of mucous membrane” value (gastric mucous membrane; [4]) was 29%, the Amount of tyrosine (gastric mucous membrane; [5]) was 0.86 ± 0.04 mg/g tissue and the “Inhibition (%) of digestion of mucous membrane” value (gastric mucous membrane; [5]) was 64%. It also gave a Urine volume (urinary electrolytes [3]; 50 mg/kg oral) of 11.5 mL, a Na/K (urinary electrolytes [3]; 50 mg/kg oral) of 5.2 and a Urine volume (urinary electrolytes [3]; 500 mg/kg oral) of 11.3 mL. The Na/K (urinary electrolytes [3]; 500 mg/kg oral) was 6.8, the LD50 (rats) was > 2000 mg/kg and the LD50 at 168 h (in vivo) was > 2000 mg/kg.
